Read-outs that look alike come from different tables or passages of the source.
How the values were obtained:
[1] = target: T1, human adenosine A2A receptor (Homo sapiens, UniProt P29274); assay: Competition binding, [3H]-ZM 241385, hA2A CHO membranes; settings: read-out: Receptor hA2A Ki; [3H]-ZM 241385; single affinity value; mean ± SEM
[2] = target: T2, human adenosine A3 receptor (Homo sapiens, UniProt P0DMS8); assay: Competition binding, [125I]-ABMECA, hA3 CHO membranes; settings: mean ± SEM
T2 construct: expressed in transfected cells; host or cells: CHO cells (membrane preparation)
T2 sequence (P0DMS8 1-318): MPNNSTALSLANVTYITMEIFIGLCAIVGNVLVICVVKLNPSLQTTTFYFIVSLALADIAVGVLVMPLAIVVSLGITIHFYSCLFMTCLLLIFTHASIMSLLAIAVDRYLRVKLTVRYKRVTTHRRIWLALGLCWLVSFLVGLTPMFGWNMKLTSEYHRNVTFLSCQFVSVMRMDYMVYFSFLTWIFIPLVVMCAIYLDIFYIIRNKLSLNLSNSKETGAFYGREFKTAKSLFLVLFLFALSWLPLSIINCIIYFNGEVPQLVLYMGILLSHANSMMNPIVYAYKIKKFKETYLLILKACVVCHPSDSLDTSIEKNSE

[3] = target: T3, human adenosine A2B receptor (Homo sapiens, UniProt P29275); assay: cAMP assay, inhibition of NECA-stimulated cAMP levels in hA2B CHO cells; settings: read-out: Receptor hA2B IC50; cAMP stimulated by NECA (100 nM); mean ± SEM
T3 sequence (P29275 1-332): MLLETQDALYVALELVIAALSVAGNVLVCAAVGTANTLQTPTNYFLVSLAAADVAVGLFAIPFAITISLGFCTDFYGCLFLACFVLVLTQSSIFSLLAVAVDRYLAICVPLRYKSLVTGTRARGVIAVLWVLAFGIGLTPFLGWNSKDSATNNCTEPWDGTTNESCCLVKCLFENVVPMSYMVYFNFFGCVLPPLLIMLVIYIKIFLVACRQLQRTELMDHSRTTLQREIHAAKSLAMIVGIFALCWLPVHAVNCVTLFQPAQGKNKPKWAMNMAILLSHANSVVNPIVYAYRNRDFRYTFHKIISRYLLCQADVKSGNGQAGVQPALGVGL

[4] = target: T4, human adenosine A1 receptor (Homo sapiens, UniProt P30542); assay: Competition binding, [3H]-DPCPX, hA1 CHO membranes; settings: read-out: Receptor hA1 Ki, mean ± SEM
T4 sequence (P30542 1-326): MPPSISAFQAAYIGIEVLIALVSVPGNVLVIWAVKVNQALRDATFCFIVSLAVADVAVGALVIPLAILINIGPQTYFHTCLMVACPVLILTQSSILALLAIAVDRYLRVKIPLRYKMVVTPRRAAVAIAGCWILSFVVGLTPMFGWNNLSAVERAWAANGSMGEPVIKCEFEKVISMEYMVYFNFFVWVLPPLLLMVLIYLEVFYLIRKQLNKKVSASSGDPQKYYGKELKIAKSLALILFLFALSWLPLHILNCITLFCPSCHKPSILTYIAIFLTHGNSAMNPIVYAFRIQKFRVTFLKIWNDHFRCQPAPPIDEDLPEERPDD

[5] = target: T1, human adenosine A2A receptor; assay: cAMP assay in hA2A CHO cells, basal or with CGS 21680; assay type: cell-based; parameters: expressed in transfected cells; host or cells: CHO cells; settings: for IC50: mean ± SEM
Procedure: For the membranes preparation the culture medium was removed, and the cells were washed with a saline phosphate-buffered solution collected with hypotonic buffer (5 mM Tris HCl, 1 mM EDTA, pH 7.4).
CHO cells transfected with the adenosine receptors were washed with a phosphate-buffered saline solution, detached with trypsin and centrifuged for 10 minutes at 200 g. […] The reaction was terminated by addition of cold 6% trichloroacetic acid (TCA). The TCA suspension was centrifuged at 2000 g for 10 minutes at 4° C. and the supernatant was extracted four times with diethyl ether with water. The final aqueous solution was tested for the cAMP levels by a competition protein binding assay with a cAMP-binding protein. The standard samples of cAMP (0-10 pmoli) were added to each test tube containing the incubation buffer (trizma base 0.1 M, aminophylline 8.0 mM, 2 mercaptoethanol 6.0 mM, pH 7.4) and [^3H]-cAMP. The binding protein previously prepared from beef adrenals, was added to the samples previously incubated at 4° C. for 150 minutes, and after the addition of charcoal were centrifuged at 2000 g for 10 min.
(§1) The statistical analysis of the data was performed using ANOVA followed by Dunnett's test. […] KH and KL were obtained by using a two sites binding model and Graph PAD Prism (San Diego, Calif., USA). The values of IC50 obtained in the cAMP assays were calculated by non-linear regression analysis using the equation for a sigmoid concentration-response curve. All data are expressed as the mean±SEM of four independent experiments each performed in duplicate for in vitro assays and n=8-10 mice/group for in vivo assays.

Female CD1 mice = assay: Writhing test (acetic acid-induced abdominal constrictions); assay type: in vivo
Procedure: Female CD1 mice (22-24 g) were obtained from Charles River (Milano, Italia). The animals were kept under standard environmental temperature conditions (22±2° C.) and under moisture-controlled conditions with 12 hours light/dark cycle and food and water ad libitum. The animals were acclimated to the laboratory settings for at least 1 hour before testing and were used only once throughout the experiments. All the procedures used in the present study were carried out in accordance with the European Communities Council Directives (86/609/EEC) and the National Laws and Policies (D.L.116/92) after authorization from the Italian Ministry for Health (4/2014-B). In addition, the experimental procedures were in agreement with the current guidelines for the care of laboratory animals and the ethical guidelines for investigations of experimental pain in conscious animals (Couto M. Methods Mol Biol 2011; 770:579-599).
The acetic acid-induced writhing response was performed after intraperitoneal injection of 10 ml/Kg of 0.6% acetic acid solution. The response to the abdominal constrictions induced by acetic acid was evaluated after the intraperitoneal injection of 10 ml/kg of a 0.6% solution of acetic acid. The compounds under evaluation were dissolved in DMSO and then diluted in a saline solution. The carrier consists of saline solution and 5% of DMSO. A writhe is indicated by stretching of the abdomen followed by the extension of the hind limbs. The animals (8 mice per group) were placed singly in a glass cylinder and the number of writhing episodes of abdominal contractions was counted in a 30 minutes period. The compounds were administered intraperitoneally 15 minutes before injection of acetic acid solution.
as §1

[6] = CGS 21680 (10 nM), read-out: IC50 cAMP, in presence of CGS 21680
[7] = CGS 21680 (10 nM), read-out: Emax cAMP, in presence of CGS 21680
[8] = basal cAMP, read-out: IC50 cAMP, in absence of CGS 21680
[9] = efficacy versus basal cAMP production, read-out: Emax cAMP, in absence of CGS 21680

T1 sequence (P29274 whole entry): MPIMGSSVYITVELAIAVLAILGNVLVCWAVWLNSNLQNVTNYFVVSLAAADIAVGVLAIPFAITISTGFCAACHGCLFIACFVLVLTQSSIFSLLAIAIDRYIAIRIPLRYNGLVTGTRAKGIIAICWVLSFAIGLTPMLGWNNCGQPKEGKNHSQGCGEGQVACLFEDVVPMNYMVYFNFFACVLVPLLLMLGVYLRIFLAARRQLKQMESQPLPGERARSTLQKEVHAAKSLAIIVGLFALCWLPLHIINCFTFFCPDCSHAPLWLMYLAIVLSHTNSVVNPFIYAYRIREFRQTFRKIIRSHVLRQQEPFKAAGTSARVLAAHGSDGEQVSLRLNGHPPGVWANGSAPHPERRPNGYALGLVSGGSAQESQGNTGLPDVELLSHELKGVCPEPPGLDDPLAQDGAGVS

SMILES	Ki [1]	Ki [2]	IC50 [3]	Ki [4]	IC50 [5, 6]	Emax [5, 7]	IC50 [5, 8]	Emax [5, 9]	ED50 (Female CD1 mice; Mus musculus, ip, intraperitoneal, 15 minutes before acetic acid)	Dose-response curve, Writhing Test (Female CD1 mice; P<0.001, one-way ANOVA)
CCCNc1nc(N)c2nc(-c3ccco3)sc2n1 [Compound 11, 2-(furan-2-yl)-N^5-propyl-[1,3]thiazolo[5,4-d]pyrimidin-5,7-diamine]	17 ± 2 nM	35 ± 4 nM	323 ± 28 nM	64 ± 10 nM						
Nc1nc(NCCc2ccco2)nc2sc(-c3ccco3)nc12 [Compound 16, 2-(furan-2-yl)-N^5-(2-(furan-2-yl)ethyl)[1,3]thiazolo[5,4-d]pyrimidin-5,7-diamine]	2.15 ± 0.19 nM	23 ± 2 nM	14 ± 1 nM	5.24 ± 0.46 nM	4.26 ± 0.37 nM	121 ± 11%	2.93 ± 0.22 nM	56 ± 6%		
CCCCNc1nc(N)c2nc(-c3ccco3)sc2n1 [Compound 12, N^5-butyl-2-(furan-2-yl)[1,3]thiazolo[5,4-d]pyrimidin-5,7-diamine]	8.21 ± 0.78 nM	23 ± 3 nM	185 ± 17 nM	41 ± 5 nM						
Nc1nc(NCc2ccsc2)nc2sc(-c3ccco3)nc12 [Compound 13, 2-(furan-2-yl)-N^5-(thiophen-3-ylmethyl)[1,3]thiazolo[5,4-d]pyrimidin-5,7-diamine]	0.25 ± 0.02 nM	3.14 ± 0.29 nM	8.96 ± 0.82 nM	8.12 ± 0.71 nM	0.41 ± 0.03 nM	137 ± 13%	0.36 ± 0.04 nM	67 ± 6%		
Nc1nc(NCCc2cccnc2)nc2sc(-c3ccco3)nc12 [Compound 17, 2-(furan-2-yl)-N^5-(2-(pyridin-3-yl)ethyl)[1,3]thiazolo[5,4-d]pyrimidin-5,7-diamine]	0.24 ± 0.01 nM	174 ± 11 nM	4.21 ± 0.32 nM	2.61 ± 0.22 nM	0.35 ± 0.04 nM	141 ± 14%	0.29 ± 0.03 nM	71 ± 7%		
Nc1nc(NCc2cnccn2)nc2sc(-c3ccco3)nc12 [Compound 15, 2-(furan-2-yl)-N^5-(pyrazin-2-ylmethyl)[1,3]thiazolo[5,4-d]pyrimidin-5,7-diamine]	5.14 ± 0.48 nM	157 ± 14 nM	13.2 ± 1.2 nM	25 ± 4 nM	11.3 ± 0.96 nM	117 ± 10%	8.27 ± 0.72 nM	48 ± 4%		
CN1CC[C@]23c4c5ccc(O)c4O[C@H]2[C@@H](O)C=C[C@H]3[C@H]1C5 [morphine, reference compound]									0.123 ± 0.01 mg/kg	dose-dependent effect
Nc1nc(NCc2ccncc2)nc2sc(-c3ccco3)nc12 [Compound 14, 2-(furan-2-yl)-N^5-(pyridin-4-ylmethyl)[1,3]thiazolo[5,4-d]pyrimidin-5,7-diamine]	12 ± 1 nM	827 ± 48 nM	33 ± 2 nM	47 ± 4 nM	18.7 ± 1.6 nM	122 ± 10%	15.3 ± 1.2 nM	43 ± 4%		
Nc1nc(NCc2ccccn2)nc2sc(-c3ccco3)nc12 [Compound 8, 2-(furan-2-yl)-N^5-(pyridin-2-ylmethyl)[1,3]thiazolo[5,4-d]pyrimidin-5,7-diamine]	0.42 ± 0.04 nM	59 ± 5 nM	95 ± 9 nM	28 ± 3 nM	1.3 ± 0.1 nM	128 ± 11%	0.68 ± 0.06 nM	54 ± 5%		
Nc1nc(NCc2cccc(O)c2)nc2sc(-c3ccco3)nc12 [Compound 4, 3-(((7-amino-2-(furan-2-yl)[1,3]thiazolo[5,4-d]pyrimidin-5-yl)amino)methyl) phenol]	20 ± 2 nM	55 ± 4 nM	24 ± 3 nM	27 ± 3 nM	22 ± 2 nM	139 ± 13%	27 ± 2 nM	68 ± 7%		
Nc1nc(NCc2cccc(F)c2)nc2sc(-c3ccco3)nc12 [Compound 9, N^5-(3-fluorobenzyl)-2-(furan-2-yl)[1,3]thiazolo[5,4-d]pyrimidin-5,7-diamine]	0.82 ± 0.07 nM	35 ± 4 nM	103 ± 10 nM	8.51 ± 0.76 nM						
COc1ccc(CNc2nc(N)c3nc(-c4ccco4)sc3n2)cc1 [Compound 2, 2-(furan-2-yl)-N^5-(4-methoxybenzyl)[1,3]thiazolo[5,4-d]pyrimidin-5,7-diamine]	171 ± 16 nM	381 ± 37 nM	283 ± 27 nM	163 ± 12 nM	123 ± 11 nM	116 ± 11%	187 ± 16 nM	38 ± 4%		

Source: US20200308192A1, “NOVEL THIAZOLO[5,4-D]PYRIMIDINE DERIVATIVES AS INVERSE AGONISTS OF A2A ADENOSINE RECEPTORS” (Universita degli Studi di Ferrara, priority 2016, published 2020)
